Oligonucleotides are written 5' to 3', each unit as a sugar letter and its base; * is a phosphorothioate linkage, no mark a phosphodiester; rarer units and linkages stand in square brackets, end groups in braces. Plain capitals give the bases only. d = 2'-deoxy (DNA)
How the values were obtained:
Type in all cases: cell-based, human
A549 lung cell carcinoma = assay: Relative colony forming efficiency (Example 17, Table 13); settings: averages of 2-8 determinations
Outline: (§1)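 0.2 μM oligo (default) + 2.5 μg Lipofectin, 4 h exposure; methylene blue stain, colonies counted; vs lipofectin-alone control, reported as % inhibition.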

[1] = test system: H596 lung adenosquamous carcinoma cells; assay: as above; settings: averages of 2-8 determinations
Outline: as §1

[2] = test system: HCT116 colon cell carcinoma; assay: as above; settings: averages of 2-8 determinations
Outline: as §1

[3] = test system: T-47D breast ductal carcinoma; assay: as above; settings: averages of 2-8 determinations
Outline: as §1

[4] = test system: MDA PaCa-2 pancreatic cell carcinoma; assay: as above; settings: MIA PaCa-2 pancreatic cell carcinoma, averages of 2-8 determinations
Outline: as §1

[5] = test system: MDA-MB-231 breast cell adenocarcinoma; assay: as above; settings: averages of 2-8 determinations
Outline: as §1

[6] = test system: T24 bladder cell carcinoma; assay: as above; settings: averages of 2-8 determinations
Outline: as §1

[7] = test system: HepG2 hepatocellular carcinoma; assay: as above; settings: averages of 2-8 determinations
Outline: as §1

[8] = test system: PC-3 prostrate cell adenocarcinoma; assay: as above; settings: averages of 2-8 determinations
Outline: as §1

Hela S3 cells = assay: Relative colony forming efficiency, lipofectin +/- oligonucleotide 4 hours; settings: Hela S3 cervix carcinoma cells; averages of 2-8 determinations
Outline: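 HeLa S3 cells were exposed to phosphorothioate antisense oligonucleotide (0.2 μM unless stated) with lipofectin for 4 h, then grown 7–10 days in 10% FBS medium. Methylene blue-stained colonies were counted and expressed as percent survival relative to lipofectin-only controls.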

| Substance | Reduced relative colony forming efficiency, A549 (% inhibition of colony forming ability) (A549 lung cell carcinoma) [%] | Reduced relative colony forming efficiency, 11596 (% inhibition of colony forming ability) [1] [%] | Reduced relative colony forming efficiency, HCT116 (% inhibition of colony forming ability) [2] [%] | Reduced relative colony forming efficiency, T-47D (% inhibition of colony forming ability) [3] [%] | Reduced relative colony forming efficiency, MIA PaCa-2 (% inhibition of colony forming ability) [4] [%] | Reduced relative colony forming efficiency, MDA-MB-231 (% inhibition of colony forming ability) [5] [%] | Reduced relative colony forming efficiency, T24 (% inhibition of colony forming ability) [6] [%] | Reduced relative colony forming efficiency, HepG2 (% inhibition of colony forming ability) [7] [%] | Reduced relative colony forming efficiency, PC-3 (% inhibition of colony forming ability) [8] [%] | Reduced relative colony forming efficiency, Hela S3 (% inhibition of colony forming ability) (Hela S3 cells) [%] | Reduced relative colony forming efficiency, MIA PaCa-2 (% inhibition of colony forming ability) ([4]; listed as AS-II-75-20 *) [%] | Reduced relative colony forming efficiency, MDA-MB-231 (% inhibition of colony forming ability) ([5]; listed as AS-II-75-20 *) [%] | Reduced relative colony forming efficiency, T24 (% inhibition of colony forming ability) ([6]; listed as AS-II-75-20 *) [%] | Reduced relative colony forming efficiency, HepG2 (% inhibition of colony forming ability) ([7]; listed as AS-II-75-20 *) [%] | Reduced relative colony forming efficiency, PC-3 (% inhibition of colony forming ability) ([8]; listed as AS-II-75-20 *) [%] |
| --- | --- | --- | --- | --- | --- | --- | --- | --- | --- | --- | --- | --- | --- | --- | --- |
| AGGACTGGTTGTGAGGTAGC (antisense dA*dG*dG*dA*dC*dT*dG*dG*dT*dT*dG*dT*dG*dA*dG*dG*dT*dA*dG*dC) [AS-II-1499-20] | 87.8 | 78.3 | 83.01 | 96.67 | 81.17 | 41.26 | 82.81 | 77.5 | 77.28 | 87.56 | – | – | – | – | – |
| ATCGCCGCCGTG (antisense dA*dT*dC*dG*dC*dC*dG*dC*dC*dG*dT*dG) [AS-II-1775-12] | 63.55 | 18.6 | – | – | 27.78 | 48.6 | 85.54 | 43.97 | 78.17 | 68.61 | – | – | – | – | – |
| CCCCTTCAGCGGCG (antisense dC*dC*dC*dC*dT*dT*dC*dA*dG*dC*dG*dG*dC*dG) [AS-II-253-14] | 61.62 | 0.81 | 53.28 | 27.09 | – | – | 19.41 | 42 | 67.26 | 65.18 | – | – | – | – | – |
| CGCGCGCTCCCGGCCCTTCC (listed as DNA, chemistry not fully specified) [AS-II-75-20] | 60.08 | – | 44.4 | 32.95 | 52.07 | 95.14 | 95.83 | 97.89 | 83.46 | 93.01 | 97.38 | 49.3 | 73.42 | 35.4 | 68.25 |
| CGCGCTCCCGGCCC (antisense dC*dG*dC*dG*dC*dT*dC*dC*dC*dG*dG*dC*dC*dC) [AS-II-79-14] | 79.17 | – | 45.56 | 70.81 | 38.89 | 48.6 | 38.4 | 70.81 | 85.32 | 28.64 | – | – | – | – | – |
| CGGCGGCGTGTT (antisense dC*dG*dG*dC*dG*dG*dC*dG*dT*dG*dT*dT) [AS-II-288-12] | 70.49 | 12.67 | 67.57 | – | 30.09 | 52.1 | 30.38 | 65.89 | 74.01 | 57.63 | – | – | – | – | – |
| G*CC*TCCG*ACC*CTTC*CC*ATT*G (antisense dG*dCdC*dTdCdCdG*dAdCdC*dCdTdTdC*dCdC*dAdTdT*dG) [AS-II-13-20] | 32.3 | 19.63 | 6.95 | 15.33 | – | 45.45 | 18.99 | 24.11 | 52.38 | 19.85 | – | – | – | – | – |
| GACACAAGGCATCGTTTCAA (antisense dG*dA*dC*dA*dC*dA*dA*dG*dG*dC*dA*dT*dC*dG*dT*dT*dT*dC*dA*dA) [AS-II-784-20] | 83.8 | – | 78.09 | 85.39 | 62.04 | 33.92 | 87.23 | 80.89 | 88.99 | 81.48 | – | – | – | – | – |
| GCACGGGCGACC (antisense dG*dC*dA*dC*dG*dG*dG*dC*dG*dA*dC*dC) [AS-II-127-12] | 69.33 | – | 54.34 | 37.54 | 53.34 | 38.46 | 50.63 | 71.75 | 79.56 | 86.45 | – | – | – | – | – |
| GCGAGCGGGACACGGAGGGA (antisense dG*dC*dG*dA*dG*dC*dG*dG*dG*dA*dC*dA*dC*dG*dG*dA*dG*dG*dG*dA) [AS-II-201-20] | 90.55 | 49.6 | 45.56 | 98.53 | – | 25.17 | 96.2 | 59.32 | 65.08 | 90.87 | – | – | – | – | – |
| GGGAGAGCATAGTGGAGGCG (antisense dG*dG*dG*dA*dG*dA*dG*dC*dA*dT*dA*dG*dT*dG*dG*dA*dG*dG*dC*dG) [AS-II-185-20] | 71.51 | 24.53 | – | 94.52 | 29.32 | 17.4 | 21.94 | 53.44 | 4.37 | 19.38 | – | – | – | – | – |
| TGCCTCCGACCCTTCCCA (antisense dT*dG*dC*dC*dT*dC*dC*dG*dA*dC*dC*dC*dT*dT*dC*dC*dC*dA) [AS-II-16-18] | 81.1 | 34.5 | 78.57 | 7.13 | – | 62.59 | 25.74 | 75.89 | 89.48 | 68.7 | – | – | – | – | – |

— US20080311126A1, “Antisense Oligonucleotides Directed to Ribonucleotide Reducatase R2 and Uses Thereof in Combination Therapies for the Treatment of Cancer” (Genesense Technologies, Inc, priority 2004, published 2008)
